We go through two compounds from publication PMC8382222, “Easy Surface Functionalization and Bioconjugation of Peptides as Capture Agents of a Microfluidic Biosensing Platform for Multiplex Assay in Serum” (Bioconjugate Chemistry, 2021).

In assay [1] the target is T1, CRP protein (Homo sapiens, UniProt P02741).
T1 construct: purchased Sigma-Aldrich
T1 sequence (P02741 19-224): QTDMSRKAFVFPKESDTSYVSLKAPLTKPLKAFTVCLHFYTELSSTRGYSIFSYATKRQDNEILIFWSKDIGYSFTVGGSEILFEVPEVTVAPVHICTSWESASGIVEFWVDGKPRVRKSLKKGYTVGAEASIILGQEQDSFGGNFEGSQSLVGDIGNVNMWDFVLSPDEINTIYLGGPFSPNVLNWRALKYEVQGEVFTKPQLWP
Kind of assay: One-step injection SPR (Taylor dispersion), CRP immobilized. The class given is binding. The protocol:
(§1) SPR experiments were performed by one-step injection with the aim of evaluating and confirming the binding constant between peptide and biomarkers. Analyte concentrations of 30 μM of VEFG-114 peptide and 245 μM of CRP-1 peptide were used. The one-step experiment was based on the Taylor dispersion theory, so a unique concentration of peptide was dispersed into a running buffer directly in the flow cell in order to have a final sigmoidal profile.[41],[42] […] For the G6 peptide, the affinity against the TNFα protein was previously estimated by our research group in a recent study (data not shown).[18]
SPR experiments were performed by one-step injection. VEGF and CRP protein were immobilized at a concentration of 100 μg/mL in a 10 mM acetate buffer pH 4.5 and 3.5, respectively, (flow 10 μL/min, injection time 20 min) on a COOH1 SensiQ sensor chip, using EDC/NHS chemistry (0.4 M EDC/0.1 M NHS, flow 25 μL/min, injection time 4 min), achieving an 800 RU signal. Groups of reactive residues were deactivated by treatment with ethanolamine hydrochloride 1 M, pH 8.5. The reference channel was prepared by activation with EDC/NHS and deactivation with ethanolamine. Analyte concentrations of 30 μM for VEFG-114 peptide and 245 μM for CRP-1 peptide were used with a flow rate of 100 μL min^–1 and a 300 s dissociation time. […]

Assay [2] addresses T2, VEGF protein (Homo sapiens, UniProt P15692).
T2 construct: purchased Peprotech
T2 sequence (P15692 1-191 isoform P15692-4): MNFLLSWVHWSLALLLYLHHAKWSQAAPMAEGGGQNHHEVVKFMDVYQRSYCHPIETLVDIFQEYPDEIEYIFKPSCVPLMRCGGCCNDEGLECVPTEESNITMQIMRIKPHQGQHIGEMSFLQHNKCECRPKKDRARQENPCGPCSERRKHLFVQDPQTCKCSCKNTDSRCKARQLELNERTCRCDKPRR
Description: One-step injection SPR (Taylor dispersion), VEGF immobilized. The class given is binding. The protocol:
as §1
Reagents for peptide synthesis (Fmoc-protected amino acids, resins, activation, and deprotection reagents) were purchased from Iris Biotech GmbH (Waldershofer Str. 49–51, 95615); EDC/NHS, PDMS, and CRP (C- Reactive Protein) were from Sigma-Aldrich. VEGF (Recombinant Human VEGF165) was purchased from Peprotech. Anti-CRP (Anti-C Reactive Protein antibody (FITC) (ab19174)) and Anti-VEGF (Anti-Recombinant Human VEGF antibody (FITC)) were from Abcam. TNF-α and Anti-TNF-α (Anti-Tumor Necrosis Factor-α antibody (FITC)) were from Prospec. Solvents for peptide synthesis and HPLC analyses were purchased from Sigma-Aldrich; reversed-phase columns for peptide analysis and the LC–MS system were supplied, respectively, from Agilent Technologies and Waters (Milan, Italy). […]

The term Kd denotes the free concentration of one partner at which half of the binding sites on the other are occupied at equilibrium, for simple one-to-one binding. Higher therefore signals a looser complex.

Structures are written as SMILES. Positions of bridges follow the written chain, without caps; N, C: chain ends. Residues, ends and D or L forms follow the SMILES beside them.

As for `CC(C)C[C@H](NC(=O)[C@H](CCC(N)=O)NC(=O)[C@@H]1CSSC[C@H](NC(=O)[C@H](C)NC(=O)[C@H](Cc2c[nH]c3ccccc23)NC(=O)[C@@H](N)CCC(=O)O)C(=O)N[C@@H](CC(N)=O)C(=O)N[C@@H](CC(=O)O)C(=O)N[C@@H](CCCNC(=N)N)C(=O)NCC(=O)N[C@@H](Cc2ccccc2)C(=O)N[C@@H](CC(N)=O)C(=O)N1)C(=O)N[C@@H](CCC(N)=O)C(=O)N[C@@H](CCCNC(=N)N)C(N)=O` [CRP-1] (H-EWACNDRGFNCQLQR-NH2; disulfide 4-11), in assay [1] (245 μM CRP-1 peptide, 1:1 interaction model), the “dissociation value (in words)” value is “low micromolar”. For the same compound, in assay [1] (CRP immobilized at 100 μg/mL (10 mM acetate pH 3.5) on COOH1 SensiQ chip, 245 μM CRP-1 analyte, 100 μL/min, 300 s dissociation, 1:1 binding model, QDAT, mean ± SD), the Kd worked out at 12 ± 0.1 µM.
For the compound `CC[C@H](C)[C@@H]1NC(=O)[C@H](CC(=O)O)NC(=O)[C@@H](NC(=O)[C@H](CC(N)=O)NC(=O)[C@@H]2CCCN2C(=O)[C@H](CCC(=O)O)NC(=O)[C@@H](N)C(C)C)CSSC[C@@H](C(=O)N[C@@H](Cc2ccccc2)C(=O)N[C@@H](CCC(=O)O)C(=O)N[C@@H](CCCNC(=N)N)C(=O)N[C@@H](CC(C)C)C(N)=O)NC(=O)[C@H](CCC(=O)O)NC(=O)[C@H](Cc2c[nH]c3ccccc23)NC(=O)[C@H](CCC(=O)O)NC(=O)[C@H](Cc2c[nH]c3ccccc23)NC(=O)[C@H](CCSC)NC(=O)[C@H](C(C)C)NC(=O)[C@H](Cc2c[nH]cn2)NC1=O` [VEGF-114] (H-VEPNCDIHVMWEWECFERL-NH2; disulfide 5-15), the “dissociation value (in words)” value in assay [2] (30 μM peptide, 1:1 interaction model) is given as “low micromolar”. Moreover, the Kd in assay [2] (VEGF immobilized at 100 μg/mL (10 mM acetate pH 4.5) on COOH1 SensiQ chip, 30 μM VEGF-114 analyte, 100 μL/min, 300 s dissociation, 1:1 binding model, QDAT, mean ± SD) came to 10 ± 0.7 µM.
